Assay results published in US20090143430A1, “ERYTHROPOIETIN PRODUCTION ACCELERATOR” (Kowa Co., Ltd., priority 2002, published 2009).
Counter-ions that a name gives are not always drawn.

Key:
Hep3B cells [1] = experiment: EPO protein produced by Hep3B cells under hypoxia (1% O2), ELISA (Test Example 1); format: cell-based; settings: 1% O2, 24 hrs
Protocol: (§1) Hep3B cells producing EPO under hypoxic condition were used. The cells were inoculated onto a 100 mm petri dish by 1.5-3.0×10^6. As a culture medium, 10 ml of Dulbecco's Modified Eagles' Medium (DMEM)/10% Fetal Calf Serum (FCS) was used. The next day, the culture medium was exchanged, and compound of Preparation Example 13 (final concentration: 100 nM) was added, then cells were cultured under 1% O2 at 37° C. for 24 hrs. Groups were prepared in which IL-1β (final concentration: 15 U/ml) or TNF-α (final concentration: 220 U/ml), of which EPO production suppressing action is known (Faquin W C, Schneider T J, Goldgerg M A, Blood, 79(8): 1987-94 (1992)), were used solely or in combination with compound of Preparation Example 13 (final concentration: 100 nM). […] The amount of EPO in the supernatant obtained after the culture was measured by ELISA (each group; n=3). The enhancer site and promoter site (144 bp) of a human EPO gene were linked to luciferase reporter vector, which was used for measuring the EPO promoter activity. The EPO promoter activity was evaluated as follows.
(§2) The data obtained were analyzed and evaluated by Student's t-test.

human EPO promoter = experiment: EPO promoter activity, luciferase reporter in Hep3B cells, 1% O2 vs 21% O2 (Test Example 1); format: cell-based; settings: 24 hrs
Protocol: as §1
1×10^6 Hep3B cells were inoculated on 30 mm petri dish (4 mL:DMEM/10% FCS), and a reporter gene (2 μg) as well as P-galactosidase gene (1 μg) as an internal standard were transfected into the cells by the lipofectin method. The next day, the culture medium was exchanged and the groups, whose group-composition was similar to the above (control group (containing no agents), IL-1β group (final concentration: 15 U/ml), TNF-α (final concentration: 220 U/ml), compound of Preparation Example 13 (final concentration: 100 nM), or a combination of compound of Preparation Example 13 and IL-1β or TNF-α) were cultured under 1% O2 or 21% O2 (as a control) at 37° C. for 24 hrs (for each group; n=4). The extract of the cells after cultured were prepared, then luciferase activity and β galactosidase activity were measured. The EPO promoter activity was expressed by the formula: […]
as §2

Hep3B cells [2] = experiment: EPO produced in Hep3B cell culture medium under 1% oxygen, ELISA kit (Test Example 2); format: cell-based; settings: 24 hrs, 100 nM, control 8.1
Protocol: Hep3B cells were inoculated by 1×10^6 on each of 6 cm dishes, and then cultured for 24 hrs. As a culture medium, 3 mL of DMEM/10% FCS was used. The culture medium was exchanged and the compounds of each of Preparation Examples 13, 23, 29, 36, and 114 were added such that the content thereof was 100 nM final concentration, and they were transferred into the atmosphere of 1% oxygen at 37° C. for further 24 hrs culture thereof. The supernatant of the culture was recovered, and the amount of EPO was measured by ELISA kit (product of Roche Diagnostics) (two cases in each group). Further, cell extract was prepared and protein amount was determined, and corrected it as production amount per protein amount. As a control, groups not containing the compounds are prepared.

anemia model mice = experiment: In vivo mice anemia model with IL-1β or TNF-α suppressed EPO production (Test Example 3); design: species or system mouse
Protocol: ICR mice (available from CLEA Japan Inc.) were made to be anemia by taking blood samples by 0.3 mL at a time from the orbital vein of the mouse by use of a heparin-coated microcapillary by 4 times in every 12 hours from 2 days before administering the agents. Further, 1.67×10^4 unit/day of mouse IL-1β (Roche Diagnostics) or 3.33×10^5 unit/day of mouse TNF-α (Roche Diagnostics) was injected intraperitoneally on day 0-3 (the first day of administration of agents was defined as […]) to induce a suppressed condition of EPO production. To these mice, Preparation Example 13 compound dissolved in 50% polyethylene glycol solution was administered orally by 1 or 3 mg/kg/day on day 0-5. As a control, 50% polyethylene glycol solution was administered (each group; n=7-15). On day 3 and 6, 0.3 mL of blood was collected, and hematocrit (Ht) value, hemoglobin (Hb) concentration (Celltac a: NIHON KOHDEN), EPO amount (ELISA kit: Roche Diagnostics) were measured. Also, the blood was stained by methylene-blue, and smears were prepared to calculate Reticulocytes value.

[3] = day 3, IL-1β mice, compound 1 mg/kg/day
[4] = day 3, IL-1β mice, compound 3 mg/kg/day
[5] = day 3, IL-1β mice, compound oral 1 mg/kg/day
[6] = day 3, IL-1β mice, compound oral 3 mg/kg/day
[7] = day 3, TNF-α mice, compound 1 mg/kg/day
[8] = day 3, TNF-α mice, compound 3 mg/kg/day
[9] = day 3, TNF-α mice, compound oral 1 mg/kg/day
[10] = day 3, TNF-α mice, compound oral 3 mg/kg/day
[11] = day 6, IL-1β mice, compound oral 1 mg/kg/day
[12] = day 6, IL-1β mice, compound oral 3 mg/kg/day
[13] = day 6, TNF-α mice, compound oral 1 mg/kg/day
[14] = day 6, TNF-α mice, compound oral 3 mg/kg/day

Molecule: COc1ccc(N(Cc2cncc(-c3cc(OC)c(OC)c(OC)c3)c2)C2CCN(Cc3ccnc(-c4cc(OC)c(OC)c(OC)c4)c3)CC2)cc1 [Preparation Example 13, 4-[N-(4-methoxyphenyl)-N-[[5-(3,4,5-trimethoxyphenyl)pyridin-3-yl]methyl]amino]1-[[2-(3,4,5-trimethoxyphenyl)pyridin-4-yl]methyl]piperidine Trihydrochloride]
- amount of the produced EPO protein relative to control (Hep3B cells [1]; compound 100 nM): twice as much as the control
- amount of the produced EPO protein (Hep3B cells [1]; compound 100 nM alone): 829.8±119.0 mU/mg protein
- amount of the produced EPO protein (Hep3B cells [1]; compound 100 nM in combination with IL-1β 15 U/ml): 395.0±72.6 mU/mg protein
- amount of the produced EPO protein (Hep3B cells [1]; compound 100 nM in combination with TNF-α 220 U/ml): 284.8±24.2 mU/mg protein
- human EPO promoter activity (HI) (human EPO promoter; compound 100 nM alone): 46.1±5.9 fold
- human EPO promoter activity (HI) (human EPO promoter; compound 100 nM with IL-1β 15 U/ml): 45.5±7.1 fold
- human EPO promoter activity (HI) (human EPO promoter; compound 100 nM with TNF-α 220 U/ml): 49.5±5.4 fold
- Increasing action of EPO production (amount of EPO per protein amount) (Hep3B cells [2]): 18.2 mU/mg Protein
- EPO amount in serum (anemia model mice; [3]): 41.8±28.3 mU/mL
- reticulocyte value (anemia model mice; [3]): 36.1±4.5%
- EPO amount in serum (anemia model mice; [4]): 58.9±21.1 mU/mL
- reticulocyte value (anemia model mice; [4]): 38.1±8.1%
- Hb amount (anemia model mice; [5]): 12.7 ± 0.7 g/dL
- Ht value (anemia model mice; [5]): 37.5±2.5%
- Hb amount (anemia model mice; [6]): 12.6 ± 1.0 g/dL
- Ht value (anemia model mice; [6]): 37.5±3.1%
- EPO amount in serum (anemia model mice; [7]): 61.4±70.4 mU/mL
- reticulocyte value (anemia model mice; [7]): 29.1±4.7%
- EPO amount in serum (anemia model mice; [8]): 64.7±92.2 mU/mL
- reticulocyte value (anemia model mice; [8]): 28.9±4.5%
- Hb amount (anemia model mice; [9]): 12.8 ± 0.6 g/dL
- Ht value (anemia model mice; [9]): 38.8±2.0%
- Hb amount (anemia model mice; [10]): 13.1 ± 0.8 g/dL
- Ht value (anemia model mice; [10]): 40.0±2.7%
- EPO amount in serum (anemia model mice; [11]): 22.2±32.8 mU/mL
- Hb amount (anemia model mice; [11]): 14.1 ± 1.1 g/dL
- Ht value (anemia model mice; [11]): 42.6±2.5%
- reticulocyte value (anemia model mice; [11]): 27.1±2.5%
- EPO amount in serum (anemia model mice; [12]): 37.1±31.1 mU/mL
- Hb amount (anemia model mice; [12]): 14.0 ± 0.9 g/dL
- Ht value (anemia model mice; [12]): 43.3±2.8%
- reticulocyte value (anemia model mice; [12]): 30.4±4.0%
- EPO amount in serum (anemia model mice; [13]): 57.4±23.9 mU/mL
- Hb amount (anemia model mice; [13]): 14.0 ± 0.6 g/dL
- Ht value (anemia model mice; [13]): 43.3±2.5%
- reticulocyte value (anemia model mice; [13]): 23.3±3.3%
- EPO amount in serum (anemia model mice; [14]): 69.9±37.8 mU/mL
- Hb amount (anemia model mice; [14]): 13.8 ± 0.5 g/dL
- Ht value (anemia model mice; [14]): 43.2±2.2%
- reticulocyte value (anemia model mice; [14]): 26.8±7.5%

Molecule: COc1cc(OC)cc(N(Cc2ccnc(-c3cc(OC)c(OC)c(OC)c3)c2)C2CCN(Cc3ccnc(-c4cc(OC)c(OC)c(OC)c4)c3)CC2)c1 [Preparation Example 23, 4-[N-(3,5-dimethoxyphenyl)-N-[[2-(3,4,5-trimethoxyphenyl)pyridin-4-yl]methyl]amino]-1-[[2-(3,4,5-trimethoxyphenyl)pyridin-4-yl]methyl]piperidine Trihydrochloride]
- Increasing action of EPO production (amount of EPO per protein amount) (Hep3B cells [2]): 13.9 mU/mg Protein

Molecule: COc1cc(-c2cc(CN3CCC(N(Cc4ccnc(-c5cc(OC)c(OC)c(OC)c5)c4)c4ccc5c(c4)OCO5)CC3)ccn2)cc(OC)c1OC [Preparation Example 29, 4-[N-(3,4-methylenedioxyphenyl)-N-[[2-(3,4,5-trimethoxyphenyl)pyridin-4-yl]methyl]amino]-1-[[2-(3,4,5-trimethoxyphenyl)pyridin-4-yl]methyl]piperidine Trihydrochloride]
- Increasing action of EPO production (amount of EPO per protein amount) (Hep3B cells [2]): 10.5 mU/mg Protein

Molecule: COc1cc(-c2cc(CN3CCC(N(C)Cc4ccnc(-c5cc(OC)c(OC)c(OC)c5)c4)CC3)ccn2)cc(OC)c1OC [Preparation Example 36, 4-[N-methyl-N-[[2-(3,4,5-trimethoxyphenyl)pyridin-4-yl]methyl]amino]-1-[[2-(3,4,5-trimethoxyphenyl)pyridin-4-yl]methyl]piperidine Tetrahydrochloride]
- Increasing action of EPO production (amount of EPO per protein amount) (Hep3B cells [2]): 10.0 mU/mg Protein

Molecule: COc1cc(-c2cncc(CN(c3ccc(SC)cc3)C3CCN(Cc4ccnc(-c5cc(OC)c(OC)c(OC)c5)c4)CC3)c2)cc(OC)c1OC [Preparation Example 114]
- Increasing action of EPO production (amount of EPO per protein amount) (Hep3B cells [2]): 14.9 mU/mg Protein

Molecule: TNF-α
- amount of the produced EPO protein (Hep3B cells [1]; TNF-α 220 U/ml alone): 180.8±24.6 mU/mg protein
- human EPO promoter activity (HI) (human EPO promoter; TNF-α 220 U/ml alone): 20.7±4.1 fold
- Hb amount (anemia model mice; day 3, TNF-α i.p. alone (control 13.8±0.6)): 12.6 ± 0.7 g/dL
- EPO amount in serum (anemia model mice; day 3, TNF-α i.p. alone (control 23.7±31.0)): 2.7±4.6 mU/mL
- reticulocyte value (anemia model mice; day 3, TNF-α i.p. alone (control 32.1±4.4)): 14.2±3.4%
- Ht value (anemia model mice; day 3, TNF-α i.p. alone (control 42.2±3.6)): 38.3±2.5%
- Hb amount (anemia model mice; day 6, TNF-α i.p. alone (control 14.8±0.8)): 13.1 ± 0.5 g/dL
- reticulocyte value (anemia model mice; day 6, TNF-α i.p. alone (control 16.3±3.1)): 9.4±3.3%
- EPO amount in serum (anemia model mice; day 6, TNF-α i.p. alone (control 24.8±33.8)): 3.3±6.0 mU/mL
- Ht value (anemia model mice; day 6, TNF-α i.p. alone (control 46.4±2.9)): 41.6±1.8%

B1: IL-1β: "IL-1β (final concentration: 15 U/ml) ... of which EPO production suppressing action is known"; "mouse IL-1β (Roche Diagnostics)" in vivo (protein, UniProt P10749 118-269, looked up)
Interleukin-1 beta: VPIRQLHYRLRDEQQKSLVLSDPYELKALHLNGQNINQQVIFSMSFVQGEPSNDKIPVALGLKGKNLYLSCVMKDGTPTLQLESVDPKQYPKKKMEKRFVFNKIEVKSKVEFESAEFPNWYISTSQAEHKPVFLGNNSGQDIIDFTMESVSS
- amount of the produced EPO protein (Hep3B cells [1]; IL-1β 15 U/ml alone): 233.3±19.4 mU/mg protein
- human EPO promoter activity (HI) (human EPO promoter; IL-1β 15 U/ml alone): 19.9±6.5 fold
- Hb amount (anemia model mice; day 3, IL-1β i.p. alone (control 13.8±0.6)): 12.3 ± 0.8 g/dL
- EPO amount in serum (anemia model mice; day 3, IL-1β i.p. alone (control 23.7±31.0)): 5.9±14.3 mU/mL
- reticulocyte value (anemia model mice; day 3, IL-1β i.p. alone (control 32.1±4.4)): 15.4±3.5%
- Ht value (anemia model mice; day 3, IL-1β i.p. alone (control 42.2±3.6)): 36.0±3.0%
- Hb amount (anemia model mice; day 6, IL-1β i.p. alone (control 14.8±0.8)): 13.5 ± 0.5 g/dL
- reticulocyte value (anemia model mice; day 6, IL-1β i.p. alone (control 16.3±3.1)): 12.2±2.0%
- EPO amount in serum (anemia model mice; day 6, IL-1β i.p. alone (control 24.8±33.8)): 2.9±5.0 mU/mL
- Ht value (anemia model mice; day 6, IL-1β i.p. alone (control 46.4±2.9)): 40.9±1.5%
